# Experimental data as given in patent US20180327367A1, “MACROCYCLIC BROAD SPECTRUM ANTIBIOTICS” (priority 2015, published 2018).
# Like-named read-outs stand apart in the source and are kept apart here.
# Legend:
# [1] = biological target: T1, SpsB (Staphylococcus aureus signal peptidase) (Staphylococcus aureus, UniProt P0A070); assay: cell-based; type: biochemical; settings: SpsB IC50, whole-cell S. aureus (USA300 background, overexpressing SpsB) as SpsB source; fluorogenic peptide substrate, kinetic read 30 min
# T1 construct: This assay uses a suspension of Staphylococcus aureus cells as a source of SpsB instead of recombinant SpsB protein; endogenous in cells; host or cells: S. aureus, USA300 background, overexpressing SpsB (whole-cell suspension from frozen pellets)
# T1 sequence (P0A070 whole entry): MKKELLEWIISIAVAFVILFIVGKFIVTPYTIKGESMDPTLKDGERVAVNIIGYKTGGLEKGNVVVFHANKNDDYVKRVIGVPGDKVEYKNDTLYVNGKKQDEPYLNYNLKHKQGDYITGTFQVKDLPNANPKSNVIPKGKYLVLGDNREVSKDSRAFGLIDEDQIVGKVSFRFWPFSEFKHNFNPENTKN
# Method in brief: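 Cleavage of an internally quenched (Dabcyl)βAla-KPAKAAE(Edans) peptide, added as 20 μM solution mixed 1:1 with cells, was followed for 30 min at 340/490 nm. SpsB came from a suspension of SpsB-overexpressing USA300 S. aureus in Tween-80-containing PBS buffer. Slopes plotted against 3-fold compound dilutions gave IC50.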
# [2] = test system: Escherichia coli ATCC 25922; assay: Minimum inhibitory concentration, broth micro-dilution (CLSI), E. coli; type: cell-based; settings: Escherichia coli, ATCC25922, 22 h, 35° C., 22 hours
# [3] = test system: Methicillin Resistant Staphylococcus aureus strain USA 300, NRS384; assay: Minimum inhibitory concentration, broth micro-dilution (CLSI), S. aureus; type: cell-based; settings: Staphylococcus aureus, MRSA / NRS 384 / USA300, 22 h, 35° C., 22 hours
# Method in brief: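 CLSI broth microdilution in cation-adjusted Mueller Hinton Broth with 0.002% Tween-80; inoculum final OD600 0.0005, 22 hours at 35° C. Ten 2-fold dilutions starting at 4 μg/mL (protocol 2) or 0.5 μg/mL (protocol 3).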
# [4] = test system: Escherichia coli MC4100 harboring the IMP4213 (E. coli IMP); assay: microbe, parasite or virus in culture; type: cell-based; settings: Escherichia coli, 22 h, read-out: MIC (μg/mL) E. coli IMP, E. coli MC4100 IMP4213, increased outer-membrane permeability; 35° C., 22 hours
# Method in brief: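 Top conc 4 μg/mL (protocol 2) or 0.5 μg/mL (protocol 3), 2-fold series, 10 points. Final OD600 0.0005; 22 h, 35° C. IMP4213 = permeable outer membrane.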
# [5] = E. coli ATCC 25922, read-out: MIC (μg/mL) E. coli
# [6] = MRSA USA 300 NRS384, read-out: MIC (μg/mL) S. aureus
# [7] = read-out: MIC (μg/mL) E. coli, E. coli ATCC 25922
# [8] = read-out: MIC (μg/mL) S. aureus, MRSA USA 300 NRS384
Compound,IC50 [1] [nM],"MIC [2, 5] [µg/mL]","MIC [3, 6] [µg/mL]",MIC [4] [µg/mL],"MIC [2, 7] [µg/mL]","MIC [3, 8] [µg/mL]"
Cc1cc(CCC(C)C)ccc1C(=O)N[C@@H](CCN)C(=O)N(C)[C@@H]1C(=O)N[C@@H](C)C(=O)N[C@H](C(=O)NCC#N)Cc2ccc(OCCN)c(c2)-c2cc1ccc2OCCN [Compound 217],0.88,0.5,0.094,0.016,,
Cc1cc(CC(C)C)ccc1C(=O)N[C@@H](CCN)C(=O)N(C)[C@@H]1C(=O)N[C@@H](C)C(=O)N[C@H](C(=O)NCC#N)Cc2ccc(OCCN)c(c2)-c2cc1ccc2OCCN [Compound 218],0.88,2,0.25,0.031,,
Cc1cc(CC(C)(C)C)ccc1C(=O)N[C@@H](CCN)C(=O)N(C)[C@@H]1C(=O)N[C@@H](C)C(=O)N[C@H](C(=O)NCC#N)Cc2ccc(OCCN)c(c2)-c2cc1ccc2OCCN [Compound 219],1.9,1.5,0.19,0.023,,
C[C@@H]1NC(=O)[C@@H](N(C)C(=O)[C@H](CCN)NC(=O)c2ccc(C(C)(C)C)cc2C(F)F)c2ccc(OCCN)c(c2)-c2cc(ccc2OCCN)C[C@@H](C(=O)NCC#N)NC1=O [Compound 220],1.5,,,0.047,2.5,0.25
CCCCCCCCc1ccc(C(=O)N[C@@H](CCN)C(=O)N(C)[C@@H]2C(=O)N[C@@H](C)C(=O)N[C@H](C(=O)NCC#N)Cc3ccc(OCCN)c(c3)-c3cc2ccc3OCCN)c(C(F)F)c1 [Compound 221],1.3,0.19,0.063,0.023,,
CCCCCCCCc1ccc(C(=O)N[C@@H](CCN)C(=O)N(C)[C@@H]2C(=O)N[C@@H](C)C(=O)N[C@H](C(=O)NCC#N)Cc3ccc(OCCN)c(c3)-c3cc2ccc3OCCN)c(N)c1 [Compound 223],1.5,0.25,0.031,0.016,,
CCCCCCCc1cc(Cl)c(C(=O)N[C@@H](CCN)C(=O)N(C)[C@@H]2C(=O)N[C@@H](C)C(=O)N[C@H](C(=O)NCC#N)Cc3ccc(OCCN)c(c3)-c3cc2ccc3OCCN)c(Cl)c1 [Compound 226],0.88,0.38,0.094,0.012,,
CCCCc1ccc(C(=O)N[C@@H](CCN)C(=O)N(C)[C@@H]2C(=O)N[C@@H](C)C(=O)N[C@H](C(=O)NCC#N)Cc3ccc(OCCN)c(c3)-c3cc2ccc3OCCN)cn1 [Compound 227],5.5,16,1.5,0.38,,
CCCCCc1ccc(C(=O)N[C@@H](CCN)C(=O)N(C)[C@@H]2C(=O)N[C@@H](C)C(=O)N[C@H](C(=O)NCC#N)Cc3ccc(OCCN)c(c3)-c3cc2ccc3OCCN)c(C2CC2)c1 [Compound 229],0.92,1.5,0.047,0.016,,
CCCCc1cc(C)c(C(=O)N[C@@H](CCCN)C(=O)N(C)[C@@H]2C(=O)N[C@@H](C)C(=O)N[C@H](C(=O)NCC#N)Cc3ccc(OCCN)c(c3)-c3cc2ccc3OCCN)c(C)c1 [Compound 230],1.3,4,0.38,0.031,,
CCCCCCCCCCCC(=O)N[C@@H](CO)C(=O)N(C)[C@@H]1C(=O)N[C@@H](C)C(=O)N[C@H](C(=O)NCC#N)Cc2ccc(OCCN)c(c2)-c2cc1ccc2OCCN [Compound 231],0.57,8,0.13,0.063,,
CCCCCCCCCC(=O)N[C@@H](CO)C(=O)N(C)[C@@H]1C(=O)N[C@@H](C)C(=O)N[C@H](C(=O)NCC#N)Cc2ccc(OCCN)c(c2)-c2cc1ccc2OCCN [Compound 232],2.4,> 64,1.5,0.25,,
C[C@@H]1NC(=O)[C@@H](N(C)C(=O)[C@H](CO)NC(=O)c2ccc(-c3ccc(Cl)cc3)cc2)c2ccc(OCCN)c(c2)-c2cc(ccc2OCCN)C[C@@H](C(=O)NCC#N)NC1=O [Compound 233],4,,,0.13,32,0.5
C[C@@H]1NC(=O)[C@@H](N(C)C(=O)[C@H](CO)NC(=O)c2cnc(-c3ccc(Cl)cc3)nc2)c2ccc(OCCN)c(c2)-c2cc(ccc2OCCN)C[C@@H](C(=O)NCC#N)NC1=O [Compound 234],3.9,,,0.25,32,1
